Reference: PubChem BioAssay (NCI)
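Following 48 hours of exposure in 96-well plates, responses at five concentrations were used to interpolate endpoints linearly. Abbreviation: GI50, concentration required for 50% inhibition of growth. TGI: total growth inhibition.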

Legend:
Test in all cases: inhibition of tumour cell growth, NCI panel, 48 h; in the data active = GI50 below about 0.43 µM; inactive = the rest
786-0 renal = tested on: 786-0 renal
A498 renal = tested on: A498 renal
A549 NSCLC = tested on: A549 NSCLC
ACHN renal = tested on: ACHN renal
BT-549 breast = tested on: BT-549 breast
CAKI-1 renal = tested on: CAKI-1 renal
CCRF-CEM leukemia = tested on: CCRF-CEM leukemia
COLO 205 colon = tested on: COLO 205 colon
DU-145 prostate = tested on: DU-145 prostate
EKVX NSCLC = tested on: EKVX NSCLC
HCC-2998 colon = tested on: HCC-2998 colon
HCT-116 colon = tested on: HCT-116 colon
HCT-15 colon = tested on: HCT-15 colon
HL-60(TB) leukemia = tested on: HL-60(TB) leukemia
HOP-62 NSCLC = tested on: HOP-62 NSCLC
HOP-92 NSCLC = tested on: HOP-92 NSCLC
HS 578T breast = tested on: HS 578T breast
HT29 colon = tested on: HT29 colon
IGROV1 ovarian = tested on: IGROV1 ovarian
K-562 leukemia = tested on: K-562 leukemia
KM12 colon = tested on: KM12 colon
LOX IMVI melanoma = tested on: LOX IMVI melanoma
M14 melanoma = tested on: M14 melanoma
MALME-3M melanoma = tested on: MALME-3M melanoma
MCF7 breast = tested on: MCF7 breast
MDA-MB-231 breast = tested on: MDA-MB-231 breast
MDA-MB-435 = tested on: MDA-MB-435
MDA-MB-468 breast = tested on: MDA-MB-468 breast
MOLT-4 leukemia = tested on: MOLT-4 leukemia
NCI-H226 lung = tested on: NCI-H226 lung
NCI-H23 lung = tested on: NCI-H23 lung
NCI-H460 lung = tested on: NCI-H460 lung
NCI-H522 lung = tested on: NCI-H522 lung
OVCAR-3 ovarian = tested on: OVCAR-3 ovarian
OVCAR-4 ovarian = tested on: OVCAR-4 ovarian
OVCAR-5 ovarian = tested on: OVCAR-5 ovarian
OVCAR-8 ovarian = tested on: OVCAR-8 ovarian
PC-3 prostate = tested on: PC-3 prostate
RPMI-8226 leukemia = tested on: RPMI-8226 leukemia
RXF 393 renal = tested on: RXF 393 renal
SF-268 CNS = tested on: SF-268 CNS
SF-295 CNS = tested on: SF-295 CNS
SF-539 CNS = tested on: SF-539 CNS
SK-MEL-2 melanoma = tested on: SK-MEL-2 melanoma
SK-MEL-28 melanoma = tested on: SK-MEL-28 melanoma
SK-MEL-5 melanoma = tested on: SK-MEL-5 melanoma
SK-OV-3 ovarian = tested on: SK-OV-3 ovarian
SN12C renal = tested on: SN12C renal
SNB-19 CNS = tested on: SNB-19 CNS
SR leukemia = tested on: SR leukemia
SW-620 colon = tested on: SW-620 colon
T-47D breast = tested on: T-47D breast
TK-10 renal = tested on: TK-10 renal
U251 CNS = tested on: U251 CNS
UACC-257 melanoma = tested on: UACC-257 melanoma
UACC-62 melanoma = tested on: UACC-62 melanoma
UO-31 renal = tested on: UO-31 renal

Cn1cc(-c2cc(N)n3nc(-c4c[nH]c5ccc(F)cc45)cc3n2)c2cc(Br)cnc21
21.9 µM: TGI (SW-620 colon)
24.5 µM: TGI (MDA-MB-231 breast)
3.69 µM: TGI (LOX IMVI melanoma)
27.4 µM: TGI (M14 melanoma)
43.4 µM: TGI (ACHN renal)
20.3 µM: TGI (HCC-2998 colon)
8.47 µM: TGI (RXF 393 renal)
40.4 µM: TGI (NCI-H522 lung)
48.5 µM: TGI (RPMI-8226 leukemia)
21.6 µM: TGI (MOLT-4 leukemia)
72.3 µM: TGI (UACC-62 melanoma)
18.5 µM: TGI (MDA-MB-468 breast)
24.8 µM: TGI (NCI-H460 lung)
20.2 µM: TGI (CCRF-CEM leukemia)
28.9 µM: TGI (U251 CNS)
50.2 µM: TGI (K-562 leukemia)
22.2 µM: TGI (786-0 renal)
64.8 µM: TGI (UO-31 renal)
39.1 µM: TGI (SF-295 CNS)
10.7 µM: TGI (HCT-15 colon)
22.7 µM: TGI (MCF7 breast)
30.2 µM: TGI (SK-MEL-28 melanoma)
24.4 µM: TGI (HT29 colon)
> 100 µM: TGI (A498 renal) | TGI (A549 NSCLC) | TGI (BT-549 breast) | TGI (CAKI-1 renal) | TGI (COLO 205 colon) | TGI (DU-145 prostate) | TGI (EKVX NSCLC) | TGI (HCT-116 colon) | TGI (HL-60(TB) leukemia) | TGI (HOP-62 NSCLC) | TGI (HOP-92 NSCLC) | TGI (HS 578T breast) | TGI (IGROV1 ovarian) | TGI (KM12 colon) | TGI (MDA-MB-435) | TGI (NCI-H226 lung) | TGI (NCI-H23 lung) | TGI (OVCAR-3 ovarian) | TGI (OVCAR-4 ovarian) | TGI (OVCAR-5 ovarian) | TGI (PC-3 prostate) | TGI (SF-268 CNS) | TGI (SK-MEL-2 melanoma) | TGI (SK-MEL-5 melanoma) | TGI (SK-OV-3 ovarian) | TGI (SN12C renal) | TGI (SNB-19 CNS) | TGI (SR leukemia) | TGI (T-47D breast) | TGI (TK-10 renal) | TGI (UACC-257 melanoma)
69.6 µM: TGI (OVCAR-8 ovarian)
inactive: GI50 (786-0 renal) 8.47 µM | GI50 (A498 renal) > 100 µM | GI50 (A549 NSCLC) 16.4 µM | GI50 (ACHN renal) 6.52 µM | GI50 (BT-549 breast) > 100 µM | GI50 (CAKI-1 renal) 6.43 µM | GI50 (CCRF-CEM leukemia) 3.45 µM | GI50 (COLO 205 colon) 55.5 µM | GI50 (DU-145 prostate) 80.8 µM | GI50 (EKVX NSCLC) > 100 µM | GI50 (HCC-2998 colon) 4.2 µM | GI50 (HCT-116 colon) 32.2 µM | GI50 (HCT-15 colon) 2.55 µM | GI50 (HL-60(TB) leukemia) 9.35 µM | GI50 (HOP-62 NSCLC) 62.2 µM | GI50 (HOP-92 NSCLC) 20.4 µM | GI50 (HS 578T breast) > 100 µM | GI50 (HT29 colon) 5.04 µM | GI50 (IGROV1 ovarian) 14.3 µM | GI50 (K-562 leukemia) 4.09 µM | GI50 (KM12 colon) 4 µM | GI50 (LOX IMVI melanoma) 1.96 µM | GI50 (M14 melanoma) 12.3 µM | GI50 (MALME-3M melanoma) 10.4 µM | GI50 (MCF7 breast) 4.11 µM | GI50 (MDA-MB-231 breast) 5.28 µM | GI50 (MDA-MB-435) 21.6 µM | GI50 (MDA-MB-468 breast) 4.64 µM | GI50 (MOLT-4 leukemia) 2.42 µM | GI50 (NCI-H226 lung) 24.3 µM | GI50 (NCI-H23 lung) 75.3 µM | GI50 (NCI-H460 lung) 6.63 µM | GI50 (NCI-H522 lung) 5.77 µM | GI50 (OVCAR-3 ovarian) > 100 µM | GI50 (OVCAR-4 ovarian) 22.5 µM | GI50 (OVCAR-5 ovarian) 21.9 µM | GI50 (OVCAR-8 ovarian) 16.8 µM | GI50 (PC-3 prostate) 11.4 µM | GI50 (RPMI-8226 leukemia) 5.67 µM | GI50 (RXF 393 renal) 2.63 µM | GI50 (SF-268 CNS) > 100 µM | GI50 (SF-295 CNS) 9.9 µM | GI50 (SF-539 CNS) 13.7 µM | GI50 (SK-MEL-2 melanoma) 26.4 µM | GI50 (SK-MEL-28 melanoma) 14.5 µM | GI50 (SK-MEL-5 melanoma) 31.3 µM | GI50 (SK-OV-3 ovarian) > 100 µM | GI50 (SN12C renal) > 100 µM | GI50 (SNB-19 CNS) 37.7 µM | GI50 (SR leukemia) 4.36 µM | GI50 (SW-620 colon) 6.93 µM | GI50 (T-47D breast) 34 µM | GI50 (TK-10 renal) 26.5 µM | GI50 (U251 CNS) 5.72 µM | GI50 (UACC-257 melanoma) 23.3 µM | GI50 (UACC-62 melanoma) 17.7 µM | GI50 (UO-31 renal) 12.8 µM
29.7 µM: TGI (MALME-3M melanoma)
41.2 µM: TGI (SF-539 CNS)
